# Data: patent US8735622B2, “Histone demethylase inhibitors and methods for using the same” (The Regents of the University of Colorado, a body corporate, priority 2011, dated 2014)
# Entries after “also recorded” stand apart in the source; their conditions may differ. Read-outs that look alike come from different tables or passages of the source.
# Assays:
# [1] = system: H3K4me3 and H3K9me3 levels in MCF7 cells; test: Quantitative immunostaining assay of H3K4me3 and H3K9me3 in MCF7 cells; type: cell-based, human; conditions: for EC50: Homo sapiens, 48 hours, immunostaining image quantification
# Method: (§1) To quantify the cellular activity of methylstat, a quantitative image-based assay was used. […] The cellular effects of methylstat were also cell type-specific.
# (§2) For quantified immunostaining experiments, KYSE150 or MCF7 cells were seeded in a 96-well plate at 10,000 cells per well and incubated at 37° C. for 24 hours. The medium was replaced and methylstat in DMSO was added at the concentration as indicated. After incubation for another 48 hours, immunostaining procedure was performed as described above using anti-H3K9me3 or anti-H3K4me3 primary antibody. Fluorescent images of cells were acquired by a Nikon Eclipse 90i fluorescence microscope and analyzed using the Cell Scoring analysis module of MetaMorph 7.0 software.
# JMJD2A = biological target: T1, JMJD2A (Homo sapiens, UniProt O75164); test: JMJD2A enzyme activity assay (DELFIA); type: biochemical; conditions: in vitro
# T1 construct: Recombinant protein preparation of GASC1(1-420), JMJD2A (1-420) and LSD1 (full-length); made in house; host or cells: Escherichia coli BL-21
# T1 sequence (O75164 1-420): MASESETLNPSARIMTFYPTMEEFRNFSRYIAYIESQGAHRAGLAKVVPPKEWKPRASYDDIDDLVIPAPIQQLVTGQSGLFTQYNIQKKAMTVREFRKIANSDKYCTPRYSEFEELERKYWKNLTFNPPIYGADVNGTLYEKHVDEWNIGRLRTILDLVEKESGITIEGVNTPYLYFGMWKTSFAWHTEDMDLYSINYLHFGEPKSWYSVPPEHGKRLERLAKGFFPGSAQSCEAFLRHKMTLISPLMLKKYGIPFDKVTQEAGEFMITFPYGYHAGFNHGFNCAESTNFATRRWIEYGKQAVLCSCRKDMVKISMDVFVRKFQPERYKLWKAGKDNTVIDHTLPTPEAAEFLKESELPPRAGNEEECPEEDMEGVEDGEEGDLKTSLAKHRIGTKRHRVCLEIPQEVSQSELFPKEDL
# Method: In order to evaluate the inhibitory activity of 1 in vitro, a GST-fusion protein of the catalytic N-terminus of human GASC1 (gene amplified in squamous cell carcinoma 1) corresponding to amino acid 1-420 was cloned and purified. […] To evaluate the enzyme specificity of 1, the activity of 1 was examined against several other related enzymes in vitro.
# The enzyme activity assays for GASC1 and JMJD2A were established on the DELFIA platform. DELFIA assays were performed in white, opaque 384-well plates coated with Streptavidin (Perkin Elmer). GST-GASC1(1-420) was diluted to 200 ng/well in 20 mM Tris HCl pH 8.5/2 mM glutathione and added in a volume of 20 μL. Blank wells received Tris/glutathione buffer only. Test compounds were diluted in DMSO and […] was pinned into the wells. Blank and control wells received only compound buffer. The reactions were initiated by the addition of 500 nM biotin-H3(1-20)K9me3 substrate, 10 μM FeSO4, 100 μM alpha-ketoglutarate in a volume of 20 μL, and incubated at room temperature for 60 minutes. The plates were washed 3 times with 100 μL of Wash Buffer (50 mM Tris pH 7.4, 150 mM NaCl, 0.05% Tween 20, 0.2% BSA). […] Time resolved fluorescence was measured after 45 minutes on an Envision Microplate Imager (Perkin Elmer Life Sciences) with 400 μs delay, excitation at 360 nm, and emission at 620 nm.
# [2] = system: H3K4me3 and H3K9me3 levels in KYSE150 cells; test: Quantitative immunostaining assay of H3K4me3 and H3K9me3 in KYSE150 cells; type: cell-based, human; conditions: for EC50: Homo sapiens, KYSE-150, 48 hours, immunostaining image quantification
# Method: as §1, §2
# LSD1 = biological target: T2, LSD1 (Homo sapiens, UniProt O60341); test: LSD1 formaldehyde dehydrogenase coupled assay; type: biochemical; conditions: in vitro
# T2 construct: LSD1 (full-length) was expressed as glutathione S-transferase (GST) fusions; made in house; host or cells: Escherichia coli BL-21
# Method: LSD1 activity was measured in a formaldehyde dehydrogenase coupled assay. 15 μL enzyme mix containing 2.4 μg GST-LSD1 in 20 mM TRIS pH 8.5, 1 mM NAD, 1.5 mU formaldehyde dehydrogenase, 0.5 mM glutathione was added, followed by pin transfer of 100 nL compound. Then reactions were started by addition of 15 μL 75 μM H3(1-20)K4me2 peptide, and NADH fluorescence was measured on a Envision Microplate Imager (Perkin Elmer Life Sciences) with excitation at 345 nm and emission at 460 nm, integration for 400 ms at 10 min and 80 min after peptide addition.
# [3] = system: prolyl hydroxylases (PHDs); test: Cellular HIF-1α level (prolyl hydroxylase specificity) in HeLa cells; type: cell-based, human; conditions: 24 hours, methylstat 5, 10, 15 μM
# From the text: (§3) To assess the specificity of methylstat in vivo, another iron(II)- and α-ketoglutarate-dependent dioxygenases, prolyl hydroxylases (PHDs), was examined. PHDs have been reported to regulate normoxic inactivation of hypoxia-inducible factors (HIFs) by hydroxylating specific prolyl residues of HIFs. […] DMOG and DFO have been used to mimic hypoxia conditions by inhibiting PHDs in vivo. […] Similar results were also observed in HeLa cells (see FIG. 7).
# (§4) Total lysates of cells were generated from the cells lysed in CelLytic M Cell Lysis (Sigma) with protease inhibitor cocktail (Sigma), mixed with 2×LSB buffer (100 mM Tris-HCl pH 6.8, 200 mM DTT, 4% SDS, 20% glycerol and 0.2% bromophenol blue) and boiled for 5 min before SDS-PAGE. BCA assay (Thermo) was applied for protein qualification.
# [4] = system: prolyl hydroxylases (PHDs); test: Cellular HIF-1α level (prolyl hydroxylase specificity) in MCF7 cells; type: cell-based, human; conditions: 24 hours, methylstat up to 15 μM, DFO 150 μM, DMOG 1 and 2 mM
# From the text: as §3, §4
compound,measurement,setting,value
COC(=O)/C=C/C(=O)N(O)CCCCNCc1ccc(COC(=O)Nc2cccc3ccccc23)cc1 [methylstat],increase of the H3K9me3 mark,[1],4.5 fold
same,EC50,[1]; read-out: EC50 for H3K4me3,6.7 µM
same,EC50,[1]; read-out: EC50 for H3K9me3,6.3 µM
same,inhibition of enzymatic activity of JMJD2A,JMJD2A,did not significantly inhibit
same,increase of the H3K9me3 mark,[2],10.8 fold
same,EC50,[2]; read-out: EC50 for H3K4me3,10.3 µM
same,EC50,[2]; read-out: EC50 for H3K9me3,8.6 µM
same,inhibition of FAD-dependent HDM LSD1,LSD1,did not significantly inhibit
same,cellular HIF-1α levels / prolyl hydroxylase inhibition,[3],did not significantly inhibit prolyl hydroxylases
same,cellular HIF-1α levels / prolyl hydroxylase inhibition,[4],did not affect the cellular HIF-1α levels; also recorded: did not significantly inhibit prolyl hydroxylases
